The target in data set [1] is T1, HIV-1 protease (Human immunodeficiency virus type 1 group M subtype B, UniProt P04585).
T1 construct: made in house; host or cells: E. coli BL21 (dE3)pLysS, pET30a vector
Put plainly: Kinetic measurements of the cleavage of anthranilyl fluorogenic substrate by HIV-1 protease. In kind it is biochemical. The conditions noted are these: purified refolded HIV-1 protease; read-out: Michaelis constant for the substrate Km.
From the text: The HIV-1 protease gene was subcloned into the pET30a vector (Novagen) and then transformed into BL21 (dE3)pLysS cells for protein expression. Protein expression and purification were followed according to Tang's procedure (Hong et al., Biochemistry, 1996, 35, 10627-10633). […] The inclusion body containing some bacterial proteins was thoroughly washed by using TRITON X-100, solubilized in BM urea and passed through the Q-sepharose column to remove the bacterial proteins which interfered with subsequent refolding steps. HIV-1 protease was refolded from the urea to an active form by dialysis. As a final step, gel filtration chromatography was used to remove impurities after refolding. Activities of purified HIV-1 protease were examined using a fluorogenic substrate, 2-aminobenzoyl-Thr-Ile-Nle-Phe(pNO2)-Gln-Arg-NH2 (Novabiochem). […] Using the first rate equation, kcat is calculated. In the condition of So<<Km, v=Eo(kcat/Km)So, where Eo is the total enzyme concentration, and So is the substrate concentrate.

Data set [2] addresses T1, HIV-1 protease. Put plainly: HIV-1 Protease Inhibition Assay. In kind it is biochemical. To be noted: fluorogenic substrate assay. The method, boiled down: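 Recombinant HIV-1 protease expressed in E. coli BL21(DE3)pLysS, refolded from urea and purified. Activity followed with fluorogenic substrate 2-aminobenzoyl-Thr-Ile-Nle-Phe(pNO2)-Gln-Arg-NH2 under So<<Km.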

The record followed here is patent US20070082883A1, “HIV protease inhibitors” (THE BOARD OF TRUSTEES OF THE UNIVERSITY OF ILLINOIS, priority 2002, published 2007).

The Km is the concentration of substrate that gives half-maximal velocity. For orientation: melting point means the temperature of the solid-liquid transition. As usually defined, the Ki is a dissociation constant, usually derived from enzyme kinetics or from competition with a known ligand. A higher Ki goes with a looser hold on the target. The IC50 is the concentration that gives 50% inhibition.

Non-standard residues stand in square brackets, D forms with d. Residues, ends and D or L forms follow the SMILES beside them. Phe(4-NO2) = N[C@@H](Cc1ccc([N+](=O)[O-])cc1)C(=O)O; Nle = CCCC[C@H](N)C(=O)O; 2Abz = Nc1ccccc1C(=O)O

For the compound `CCCC[C@H](NC(=O)[C@@H](NC(=O)[C@@H](NC(=O)c1ccccc1N)[C@@H](C)O)[C@@H](C)CC)C(=O)N[C@@H](Cc1ccc([N+](=O)[O-])cc1)C(=O)N[C@@H](CCC(N)=O)C(=O)N[C@@H](CCCNC(=N)N)C(N)=O` [2-aminobenzoyl-Thr-Ile-Nle-Phe(pNO2)-Gln-Arg-NH2] (H-[2Abz]TI[Nle][Phe(4-NO2)]QR-NH2), the Km in data set [1] stood at 4.5 µM.

Compound `CC(C)CN(C[C@@H](O)[C@H](Cc1ccccc1)NC(=O)OC1CC2CCO[C@@H]2C1)S(=O)(=O)c1ccc(O)c(O)c1` (stereo partly drawn) [Compound 88] yielded a melting point of 80 to 82 °C. Also, the affinity in data set [2], expressed as Ki, was 1.2 nM.

Compound `CNCc1ccc(S(=O)(=O)N(CC(C)C)C[C@@H](O)[C@H](Cc2ccccc2)NC(=O)OC2CO[C@H]3OCCC23)cc1` (stereo partly drawn) [Compound 119] gave a melting point of 57 to 62 °C. In data set [2], this compound came in with an IC50 of 3.5 nM and a Ki of 1.1 nM.

For the compound `CC(C)(C)OC(=O)N[C@@H](Cc1ccccc1)[C@H](O)CN(C[C@H]1CCC(=O)N1)S(=O)(=O)c1ccc([N+](=O)[O-])cc1` [Compound 307a, {(1S)-Benzyl-(2R)-hydroxy-3-[(4-nitrobenzenesulfonyl)-(5-oxopyrrolidin-(2R)-ylmethyl)amino]propyl}-carbamic acid tert-butyl ester], the IC50 in data set [2] came to 7 nM.

Take `CC(C)(C)OC(=O)N[C@@H](Cc1ccccc1)[C@H](O)CN(C[C@@H]1CCC(=O)N1)S(=O)(=O)c1ccc([N+](=O)[O-])cc1` [Compound 307b]: in data set [2], the IC50 is 12 nM.

`CC(C)CN(C[C@@H](O)[C@H](Cc1ccccc1)NC(=O)OC(C)(C)C)C1CC2(CCCC2)NC1=O` (stereo partly drawn) [Compound 528b] registered an IC50 in data set [2] of 386 nM.
